The record followed here is patent US6180615A, “Propargyl phenyl ether A2A receptor agonists” (CV Therapeutics, Inc., priority 1999, dated 2001).

The target in the experiment is T1, A2A receptor (Sus scrofa, UniProt K9IW67).
T1 construct: from tissue; host or cells: pig striatum membranes
T1 sequence (K9IW67 1-409): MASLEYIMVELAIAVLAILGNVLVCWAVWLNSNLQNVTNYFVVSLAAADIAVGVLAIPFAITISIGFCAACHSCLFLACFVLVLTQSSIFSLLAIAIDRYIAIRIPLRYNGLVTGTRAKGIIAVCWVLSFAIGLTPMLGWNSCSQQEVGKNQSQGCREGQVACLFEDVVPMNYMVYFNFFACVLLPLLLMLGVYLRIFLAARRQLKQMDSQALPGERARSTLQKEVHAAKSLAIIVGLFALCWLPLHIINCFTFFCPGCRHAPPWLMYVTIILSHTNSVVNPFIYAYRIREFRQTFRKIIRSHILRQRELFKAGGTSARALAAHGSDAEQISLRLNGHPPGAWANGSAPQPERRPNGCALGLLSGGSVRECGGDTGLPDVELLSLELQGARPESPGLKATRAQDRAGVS
As to the kind of experiment: affinity for the A2A receptor in a pig striatum membrane prep (displacement of tritiated antagonist ZM 241385). The class given is binding. Conditions: pig striatal membranes, adenosine deaminase, 50 mM Tris pH 7.4, 2 nM tritiated ZM 241385, 23° C. for 2 h. As to the method: Compositions of this invention were assayed to determine their affinity for the A2A receptor in a pig striatum membrane prep. 0.2 mg of pig striatal membranes were treated with adenosine deaminase and 50 mM Tris buffer (pH=7.4) followed by mixing. To the pig membranes was added 2 μL of serially diluted DMSO stock solution of the compounds of this invention at concentrations ranging from 100 μM to 10 nM or the control received 2 μL of DMSO alone, then the tritiated antagonist ZM 241385 in Tris buffer (50 mM, pH of 7.4) was added to achieve a final concentration of 2 nM . After incubation at 23° C. for 2 h, the solutions were filtered using a membrane harvester using multiple washing of the membranes (3×). The filter disks where counted in scintillation cocktail affording the amount of displacement of tritiated ZM by the competitive binding compositions of this invention. Greater than a 5 point curve was used to generate IC50's and the number of experiments (n) is indicated in the column marked in Table 1 below.
As for `Nc1nc(C#CCOc2ccccc2-c2ccccc2)nc2c1ncn2[C@@H]1O[C@H](CO)[C@@H](O)[C@H]1O` [Compound 10, (4S,2R,3R,5R)-2-{6-amino-2-[3-(2-phenylphenoxy)prop-1-ynyl]purin-9-yl}-5-(hydroxymethyl)oxolane-3,4-diol], the inhibitory constant (Ki) was in the range of 100 to 1000 nM.
Consider `Nc1nc(C#CCOc2ccccc2)nc2c1ncn2[C@@H]1O[C@H](CO)[C@@H](O)[C@H]1O` [Compound 11, (4S,2R,3R,5R)-2-[6-amino-2-(3-phenoxyprop-1-ynyl)purin-9-yl]-5-(hydroxymethyl)oxolane-3,4-diol], for which the Ki fell in the range of 10 to 100 nM.
Compound `N#Cc1ccc(OCC#Cc2nc(N)c3ncn([C@@H]4O[C@H](CO)[C@@H](O)[C@H]4O)c3n2)cc1` [Compound 12, 4-(3-{9-[(4S,2R,3R,5R)-3,4-dihydroxy-5-(hydroxymethyl)oxolan-2-yl]-6-aminopurin-2-yl}prop-2-ynyloxy)benzenecarbonitrile] had a Ki of 100 to 1000 nM.
Regarding `Nc1nc(C#CCOc2ccc(-c3ccccc3)cc2)nc2c1ncn2[C@@H]1O[C@H](CO)[C@@H](O)[C@H]1O` [Compound 13, (4S,2R,3R,5R)-2-{6-amino-2-[3-(4-phenylphenoxy)prop-1-ynyl]purin-9-yl}-5-(hydroxymethyl)oxolane-3,4-diol], the Ki fell in the range of 1000 to 10000 nM.
Regarding `Nc1nc(C#CCOc2ccccc2Cc2ccccc2)nc2c1ncn2[C@@H]1O[C@H](CO)[C@@H](O)[C@H]1O` [Compound 14], the Ki fell in the range of 100 to 1000 nM.
In turn, `Nc1nc(C#CCOc2cccc3c2OCO3)nc2c1ncn2[C@@H]1O[C@H](CO)[C@@H](O)[C@H]1O` [Compound 15, 2-[2-(3-(2H-benzo[2,3-d]1,3-dioxolen-4-yloxy)prop-1-ynyl)-6-aminopurin-9-yl](4S,2R,3R,5R)-5-(hydroxymethyl)oxolane-3,4-diol] had an inhibitory constant (Ki) of 10 to 100 nM.
The compound `CC(C)(C)c1cc(OCC#Cc2nc(N)c3ncn([C@@H]4O[C@H](CO)[C@@H](O)[C@H]4O)c3n2)cc(C(C)(C)C)c1` [Compound 16, (4S,2R,3R,5R)-2-(6-amino-2-{3-[3,5-bis(tert-butyl)phenoxy]prop-1-ynyl}purin-9-yl)-5-(hydroxymethyl)oxolane-3,4-diol] had an inhibitory constant (Ki) of 1000 to 10000 nM.
